Earlier results, collected in paper PMC8146789, “20-Hydroxyecdysone, from Plant Extracts to Clinical Use: Therapeutic Potential for the Treatment of Neuromuscular, Cardio-Metabolic and Respiratory Diseases” (Biomedicines, 2021).
Where two headings read alike, the source gives them in different places.

Tests used:
[1] = tested on: myostatin gene expression in C2C12 cells; conditions: cited from earlier work
C2C12 myotubes = tested on: C2C12 myotubes; parameters: method as in PMID 24974955; conditions: E2 1 nM; ref [54]; cited from earlier work
ERα = tested on: ERα; parameters: method as in PMID 24974955; conditions: ref [54]; cited from earlier work
Erβ = tested on: Erβ; parameters: method as in PMID 24974955; conditions: ref [54]; cited from earlier work
[2] = parameters: method as in PMID 3355591, PMID 2906596; conditions: mice, i.p., ref [123],[125], cited from earlier work
[3] = humans, ref [132], cited from earlier work
[4] = sheep, ingested; ref [132]; cited from earlier work
[5] = parameters: method as in PMID 5719028, PMID 30428419; conditions: ref [154],[155]; cited from earlier work
[6] = rat, in vivo, po; cited from earlier work
rats [7] = tested on: rats; parameters: method as in ref [121] = [121]; 121. Ogawa S. Nishimoto N. Matsuda H. Pharmacology of ecdysones un vertebrates Invertebrate Endocrinology and Hormonal Heterophylly Burdette W.J. Springer Berlin, Germany 1974 341 344; conditions: ref [121]; cited from earlier work
mice = conditions: ref Ogawa et al. [121], cited from earlier work
rats [8] = conditions: long-term feeding 0.2–2 g/kg/day, ref [121]; cited from earlier work

C[C@]12CC[C@@H]3c4ccc(O)cc4CC[C@H]3[C@@H]1CC[C@H]2O [17αE2, 17-epi-estradiol]
myostatin gene expression ([1]; C2C12 cells, ref [113]): inhibit myostatin gene expression in C2C12 cells

C[C@]12CC[C@@H]3c4ccc(O)cc4CC[C@H]3[C@@H]1CC[C@@H]2O [E2, Estradiol, reference compound]
myotube diameter (C2C12 myotubes): enhanced myotube diameter
myostatin gene expression ([1]; C2C12 cells, ref [113]): inhibit myostatin gene expression in a dose-dependent manner
activation of ERE reporter gene (ERα): could be activated dose dependently
activation of ERE reporter gene (Erβ): could be activated dose dependently

C[C@]12CC[C@@H]3c4ccc(O)cc4C(=NOCC(=O)O)C[C@H]3[C@@H]1CC[C@@H]2O [E2-CMO, estradiol 6-carboxymethyloxime]
myostatin gene expression ([1]; C2C12 cells, ref [113]): inhibit myostatin gene expression in C2C12 cells like E2

C[C@H]([C@H](O)CCC(C)(C)O)[C@H]1CC[C@@]2(O)C3=CC(=O)[C@@H]4C[C@@H](O)[C@@H](O)C[C@]4(C)[C@H]3CC[C@]12C [E, ecdysone]
time to full excretion of radioactivity ([2]; undiluted radiolabelled ecdysone): ≤ 24 h
time until essentially all radioactivity is located in the intestine [2]: 45 to 60 min
time of plasma titre maximum ([3]; ingested): ca. 30 min
effective half-time of elimination from the blood [3]: 4 h
effective half-time of elimination from the urine [3]: 3.1 h
time of plasma titre maximum [4]: ca. 30 min

CC(=O)[C@H]1CC[C@@]2(O)C3=CC(=O)[C@@H]4C[C@@H](O)[C@@H](O)C[C@]4(C)C3CC[C@]12C (stereo partly shown) [Post, poststerone]
anabolic activity [5]: seem to retain some anabolic activity
bioavailability [6]: ca. 19%

CC(CO)CC[C@@H](O)[C@](C)(O)[C@H]1CC[C@@]2(O)C3=CC(=O)[C@@H]4C[C@@H](O)[C@@H](O)C[C@]4(C)[C@H]3CC[C@]12C (stereo partly shown) [inokosterone]
sex hormonal activity, anti-inflammatory or anabolic effects (rats [7]): did not have
LD50 (mice; i.p.-injected): 7800 mg/kg
LD50 (mice; ingested): > 9000 mg/kg
subacute toxicity (rats [8]): no subacute toxicity was observed

C[C@]12C[C@H](O)[C@H](O)C[C@H]1C(=O)C=C1[C@@H]2CC[C@]2(C)C(=O)CC[C@@]12O [rubrosterone]
anabolic activity [5]: seem to retain some anabolic activity

Angiotensin(1-7): natural ligand for the GPCR Mas1 (DRVYIHP; Angiotensin 1-7; UniProt P01019 25-31, looked up)
myostatin gene expression ([1]; C2C12 cells, ref [113]): partially inhibits myostatin gene expression

D-Ala^7-Ang(1-7)
effect on the inhibition of myostatin gene expression by 20E ([1]; C2C12 cells, ref [113]): effective at preventing the inhibition brought about by 20E
effect on the inhibition of myostatin gene expression by Ang(1-7) ([1]; C2C12 cells, ref [113]): abolished

D-Pro^7-Ang(1-7)
effect on the inhibition of myostatin gene expression by 20E ([1]; C2C12 cells, ref [113]): effective at preventing the inhibition brought about by 20E
effect on the inhibition of myostatin gene expression by Ang(1-7) ([1]; C2C12 cells, ref [113]): abolished

IGF-1: insulin-like growth factor-1
myostatin gene expression ([1]; C2C12 myotubes, 6 h treatment, ref [103]): markedly reduces myostatin gene expression
